Results from article PMC8398714, “Synthesis and Evaluation of Biological Activities of Bis(spiropyrazolone)cyclopropanes: A Potential Application against Leishmaniasis” (Molecules, 2021).
“Also recorded” adds a separate entry of the source. Like-named read-outs stand apart in the source and are kept apart here.

Tests used:
[1] = test system: MCF-7; test: MTS cell viability assay on MCF-7 cells; assay type: cell-based; conditions: Homo sapiens, MCF7, 48 h, Dox 1 µM, mean ± SEM, NA = no activity, read-out: Percentage (%) of inhibition, MCF-7
Procedure: Five tumor human cancer cell lines—cerebral astrocytoma (D-384), grade IV prostatic adenocarcinoma (PC-3), mammary adenocarcinoma (MCF-7), human colon carcinoma (RKO) and lung carcinoma (A-549)—along with one immortalized hamster cell line (CHO K-1) were used. The cells PC-3, MCF-7 and RKO were cultured in RPMI-1640, D-384 on DMEM and CHO K-1 on HAM F-12 medium supplemented with 10% fetal bovine serum (FBS, Invitrogen, Karlsruhe, Germany), 1% antibiotic-antimitotic solution (100 units/mL penicillin G, 100 µg/mL streptomycin, and 0.25 µg/mL amphotericin B, Gibco, Grand Island, NY, USA), and 1% L-glutamine (2 mM, Gibco). The cells were incubated at 37 °C in a 5% CO2 atmosphere. The viable cells were counted using the trypan blue exclusion method in a hemocytometer.
The MTS (5-[3-(carboxymethoxy)phenyl]-3-(4,5-dimethyl-2-thiazolyl)-2-(4-sulfo- phenyl)-2H-tetrazolium inner salt) cell viability assay was used to assess the inhibitory effects of the extracts on the survival of human cancer cell lines. A total of 3–5 × 10^3 cells/well were seeded into 96-well plates and were allowed to adhere for 24 h. […] Each concentration/assay was performed three times. Dimethyl sulfoxide (DMSO) was used as a negative control at a final concentration of 0.1% v/v, and 1 µM Doxorubicin was used as a positive control. The cells were incubated with the treatments for 48 h, after which 20 µL MTS (5 mg/mL, Aqueous One Solution Reagent, Gibco) was added and further incubated for 4 h at 37 °C. The absorbance was measured at 570 nm. The data obtained with cells treated with DMSO were defined to represent 100% viability.

[2] = test system: promastigotes of Leishmania mexicana; test: Leishmanicidal activity, MTT assay on promastigotes; assay type: cell-based; conditions: for SI (Selectivity Index) = Citotoxic activity/Leishmanicidal activity: CC50 RAW / IC50 L. mexicana; for IC50: Leishmania mexicana
Procedure: The leishmanicidal activity of all compounds was evaluated by measuring promastigotes’ mitochondrial activity using MTT colorimetric assay as described previously. In this study, promastigotes from Leishmania mexicana were used. The species were confirmed by amplifying and sequencing cytochrome b gene. Promastigotes were cultured at 25 °C in Schneider’s Drosophila Medium (Gibco, Invitrogen, Carlsbad, CA, USA) supplemented with 10% fetal bovine serum (Eurobio, Les Ulis, France). The medium was renewed every third day. Parasite density was determined by counting the cells using a Neubauer chamber.
Into each well of a 96-well plate were dispensed 1 × 10^6 parasites/well. A stock solution of the compounds was prepared in DMSO (Sigma Aldrich, Saint Louis, MO, USA), and serial dilutions were added to the parasite suspension, leading to concentrations ranging from 100 to 0.001 µM, keeping the solvent concentration at 0.5%. The final volume was 200 µL for each well and triplicate conditions were carried out. Amphotericin B (Gibco) treatment (1 µM) untreated parasites and DMSO 0.5% were used as positive and negative controls, respectively. After exposure to the compounds for 48 h in culture medium, 20 µL of a solution of 5 mg/mL MTT dissolved in PBS were added to each well. The plate was incubated at 25 °C for 2 h in darkness. The plate was then centrifuged at 4400 rpm for 10 min and the culture medium was then aspirated; 50 µL of DMSO were added into each well to solubilize the formazan crystals and the plate was shaken for 5 min and then it was measured by recording changes in absorbance at 570 nm using a microplate reader Cytation 5 (BioTek) spectrophotometer. A reference wavelength of 630 nm was used as background subtraction. Optical densities were analyzed because the quantity of formazan is directly proportional to the number of viable parasites. Data were analyzed with the statistical software GraphPad Prism 7.02 (GraphPad Software, Corp.).

[3] = test system: Leishmania mexicana cells; test: Comet assay of Leishmania mexicana cells; assay type: cell-based; set-up: Comet tail length, mean (vary) / Comet tail length, median (Q50): unit not given here; conditions: L. mexicana, 24 h at MIC; for Comet tail length, mean (vary) / Comet tail length, median (Q50): MMS 0.011%, Kruskal-Wallis $means; for Genotoxic effect (DNA breaks) in comet assay: in words
Procedure: We quantified DNA breaks by a comet assay to determine if these compounds are genotoxic. Here, L. mexicana cells were exposed for 24 h to MIC concentrations previously determined (see Materials and Methods Section) for each compound. Figure 1 represents the measurements obtained for tail length. All compounds generated DNA breaks expect 4s. […] Samples with DMSO and MMS (0.011%) were included as controls. Some representative pictures are shown at Figure S4. The effect of 4p could not be determined because the cells appear to be very damaged. The data was subjected via a Kruskal–Wallis one-way ANOVA (Statistical Analyses S2). […] These observations support a mechanism of action through the generation of DNA damage.
For leishmania, a method previously described for yeast was adapted. Briefly, after incubating the cells in presence of the compounds for 24 h, cells were collected and washed with buffer S (1 M sorbitol, 25 mM KH2PO4 in ultrapure water and adjust to pH 6.5 with NaOH). The pellet was resuspended in 400 µL of 1.5% LMA and 40 µL was spread (second layer) onto previously agarose-coated slides (first layer).
Slides were immersed in cold lysis buffer (30 mM NaOH, 1 M NaCl, 0.05 % (w/v) lauroylsarcosine, 50 mM EDTA, and 10 mM Tris–HCl, pH 10) for 25 min and then in cold electrophoresis alkaline buffer (30 mM NaOH, 10 mM EDTA, and 10 mM Tris–HCl, pH 10). They were then subjected to electrophoresis at 26V and 300 mA. Slides were immersed in neutralization buffer (10 mM Tris–HCl, pH 7.4; prepared in advance and stored at 4 °C) for 10 min at room temperature. The cells were then treated with proteinase K (20 min, 37 °C in humid chamber), followed by a new neutralization step. To dehydrate the slides, they were immersed in EtOH 90% and EtOH absolute for 10 min each. Finally, the slides were stained with Sybr Gold 1X.
The DNA migration was analyzed using a LEICA microscope with fluorescence (40×) by scoring 100 cells per slide in duplicate. The tail moment parameter was then analyzed by the Comet Score software.

[4] = read-out: IC50 original values, x.1 (Mean)
[5] = L. mexicana promastigotes, 48 h, MTT, read-out: Leishmanicidal Activity IC50

Row | Structure (SMILES) | inhibition at 100 µM [1] | SI (Selectivity Index) = Citotoxic activity/Leishmanicidal activity [2] | IC50 [2, 4] | IC50 [2, 5] | Comet tail length, mean (vary) [3] | Comet tail length, median (Q50) [3] | melting point | Genotoxic effect (DNA breaks) in comet assay [3]
1 | CC1=NN(c2ccccc2)C(=O)[C@@]12C(c1ccccc1)[C@@]21C(=O)N(c2ccccc2)N=C1C (relative stereo) [4b, (5R*,6R*)-4,10-Dimethyl-2,8,11-triphenyl-2,3,8,9-tetraazadispiro[4.0.4.1]undeca-3,9-diene-1,7-dione] | 7.87 ± 2.92% | 21.3 | 158 nM | 160 nM | 50400000 | 55000000 | 129 to 130 °C | –
2 | CC1=NN(c2ccccc2)C(=O)[C@@]12C(c1ccccc1[N+](=O)[O-])[C@@]21C(=O)N(c2ccccc2)N=C1C (relative stereo) [4c, (5R*,6R*)-11-(2-Nitrophenyl)-4,10-dimethyl-2,8-diphenyl-2,3,8,9-tetraazadispiro[4.0.4.1]undeca-3,9-diene-1,7-dione] | 16.7 ± 5.36% | 15.3 | 150 nM | 150 ± 40 nM | 70710000 | 72500000 | 165.1 to 165.5 °C | –
3 | CC1=NN(c2ccccc2)C(=O)[C@@]12C(c1cccc([N+](=O)[O-])c1)[C@@]21C(=O)N(c2ccccc2)N=C1C (relative stereo) [4d, (5R*,6R*)-11-(3-Nitrophenyl)-4,10-dimethyl-2,8-diphenyl-2,3,8,9-tetraazadispiro[4.0.4.1]undeca-3,9-diene-1,7-dione] | 39.4 ± 2.29% | 26.0 | 148 nM | 150 ± 20 nM | 75120000 | 83500000 | 183.9 to 185 °C | –
4 | COc1ccc(C2[C@@]3(C(=O)N(c4ccccc4)N=C3C)[C@]23C(=O)N(c2ccccc2)N=C3C)cc1 (relative stereo) [4e, (5R*,6R*)-11-(4-Methoxyphenyl)-4,10-dimethyl-2,8-diphenyl-2,3,8,9-tetraazadispiro[4.0.4.1]undeca-3,9-diene-1,7-dione] | 4.47 ± 3.48% | 4.9 | 1480 nM | 1480 ± 250 nM | 65120000 | 64500000 | 163.5 to 165.7 °C | –
5 | COc1ccccc1C1[C@@]2(C(=O)N(c3ccccc3)N=C2C)[C@]12C(=O)N(c1ccccc1)N=C2C (relative stereo) [4f, (5R*,6R*)-11-(2-Methoxyphenyl)-4,10-dimethyl-2,8-diphenyl-2,3,8,9-tetraazadispiro[4.0.4.1]undeca-3,9-diene-1,7-dione] | – | 5.7 | 2230 nM | 2230 ± 70 nM | 75100000 | 80500000 | 147.8 to 149 °C | –
6 | CC1=NN(c2ccccc2)C(=O)[C@@]12C(c1ccc([N+](=O)[O-])cc1)[C@@]21C(=O)N(c2ccccc2)N=C1C (relative stereo) [4k, (5R*,6R*)-11-(4-Nitrophenyl)-4,10-dimethyl-2,8-diphenyl-2,3,8,9-tetraazadispiro[4.0.4.1]undeca-3,9-diene-1,7-dione] | 43 ± 3.46% | 11.0 | 295 nM | 300 ± 90 nM | 142780000 | 128000000 | 145.3 to 152.9 °C (dec.) | biggest genotoxic effects; also recorded: strongest effects
7 | COC(=O)c1ccc(C2[C@@]3(C(=O)N(c4ccccc4)N=C3C)[C@]23C(=O)N(c2ccccc2)N=C3C)cc1 (relative stereo) [4q, (5R*,6R*)-Methyl-4[4,10-dimethyl-2,8-diphenyl-2,3,8,9-tetraazadispiro[4.0.4.1]undeca-3,9-diene-1,7-dione-11-yl]benzoate] | 32.5 ± 2.33% | 14.3 | 277 nM | 280 ± 40 nM | 172025000 | 177500000 | 162.5 to 163.9 °C | highest genotoxic activity; also recorded: strongest effects
8 | CC1=NN(c2ccccc2)C(=O)[C@@]12C(c1ccc(C(F)(F)F)cc1)[C@@]21C(=O)N(c2ccccc2)N=C1C (relative stereo) [4r, (5R*,6R*)-11-(4-Trifluoromethylphenyl)-4,10-dimethyl-2,8-diphenyl-2,3,8,9-tetraazadispiro[4.0.4.1]undeca-3,9-diene-1,7-dione] | 45.8 ± 2.11% | 34.2 | 188 nM | 190 ± 60 nM | 96310000 | 98500000 | 154.6 to 156.5 °C | –
9 | CC1=NN(c2ccccc2)C(=O)[C@@]12C(c1ccc(OC(F)(F)F)cc1)[C@@]21C(=O)N(c2ccccc2)N=C1C (relative stereo) [4s, (5R*,6R*)-11-(4-Trifluoromethoxyphenyl)-4,10-dimethyl-2,8-diphenyl-2,3,8,9-tetraazadispiro[4.0.4.1]undeca-3,9-diene-1,7-dione] | 9.91 ± 3.37% | 45.3 | 189 nM | 190 ± 70 nM | 39720000 | 39500000 | 150.5 to 151.5 °C | weakest
